Tests used:
[1] = Stability comparison of the salt forms (Table 2); assay type: physicochemical; conditions: salt form comparison
[2] = Solubility screen of the salts in aqueous acid solution, HPLC; assay type: physicochemical; conditions: thermodynamic from solid, room temperature, one week
Description: Prepare an aqueous solution (approximately 0.1 M) of selected acid. Add solid 5-(5-(2-(3-aminopropoxy)-6-methoxyphenyl)-1H-pyrazol-3-ylamino)pyrazine-2-carbonitrile (20-26 mg). Agitate slurry at room temperature for one week. Measure the 5-(5-(2-(3-aminopropoxy)-6-methoxyphenyl)-1H-pyrazol-3-ylamino)pyrazine-2-carbonitrile concentration by HPLC. Aliquots (˜200 μL) are withdrawn from the suspensions through 0.45 micron Millex® PTFE filters. Dilute samples with mobile phase and analyze by HPLC. Analyze the samples with an Agilent 1100 HPLC (Instrument 800) with a Zorbax Bonus RP (75 mm×4.6 mm, 3.5 micron particle size) column, or equivalent. The mobile phase consists of 20% of a 0.1% TFA in acetonitrile mixture and 80% of a 0.1% TFA in water mixture. Instrument conditions are as follows: flow rate 1.0 mL/minute, wavelength of detection 290 nm, 3 μL injection volume, 10 minute run time, and column temperature of 30° C. Prepare a stock solution of 5-(5-(2-(3-aminopropoxy)-6-methoxyphenyl)-1H-pyrazol-3-ylamino)pyrazine-2-carbonitrile in 50/50 water/acetonitrile and dilute with 50/50 water/acetonitrile to give concentrations suitable for quantification of the solubility samples. Dilute the samples with 50/50 acetonitrile/water. Use a dilution factor of 200 for the samples. Measure the pH of each solution and analyze the solid residues by microscopy and XRPD (wet and dry) for crystallinity and crystal form.
Prepare a (S)-lactic acid aqueous solution (0.104 M, 1 mL). Add solid 5-(5-(2-(3-aminopropoxy)-6-methoxyphenyl)-1H-pyrazol-3-ylamino)pyrazine-2-carbonitrile (21.7 mg, 0.059 mmol). Agitate the slurry at room temperature for one week. Measure the 5-(5-(2-(3-aminopropoxy)-6-methoxyphenyl)-1H-pyrazol-3-ylamino)pyrazine-2-carbonitrile concentration by HPLC. Withdraw an aliquot (˜200 μL) from the suspension through 0.45 micron Millex® PTFE filters. Dilute the samples with mobile phase and analyze by HPLC. Analyze the samples with an Agilent 1100 HPLC (Instrument 800) with a Zorbax Bonus RP (75 mm×4.6 mm, 3.5 micron particle size) column, or equivalent. The mobile phase consists of 20% of a 0.1% TFA in acetonitrile mixture and 80% of a 0.1% TFA in water mixture. Instrument conditions are as follows: flow rate 1.0 mL/minute, wavelength of detection 290 nm, 3 μL injection volume, 10 minute run time, and column temperature of 30° C. Prepare a stock solution of 5-(5-(2-(3-aminopropoxy)-6-methoxyphenyl)-1H-pyrazol-3-ylamino)pyrazine-2-carbonitrile in 50/50 water/acetonitrile and dilute with 50/50 water/acetonitrile to give concentrations suitable for quantification of the solubility samples. Dilute the samples with 50/50 acetonitrile/water. Use a dilution factor of 200 for the samples. […]

[3] = Pharmacokinetic comparison after 1-hour IV infusion, plasma concentrations by LC-MS/MS; assay type: in vivo, male Sprague-Dawley rats; conditions: rat; for concentration at 0.25 h / concentration at 0.5 h / concentration at 1 h / concentration at 1.25 h / concentration at 1.5 h / concentration at 2 h / concentration at 4 h / concentration at 8 h / concentration at 24 h: male, Sprague-Dawley, single 10 mg/kg 1-hour intravenous infusion; for concentration at 0.25 h: 0.25 hours after start of infusion; for concentration at 0.5 h: 0.5 hours after start of infusion; for concentration at 1 h: 1 hour after start of infusion; for concentration at 1.25 h: 1.25 hours after start of infusion; for concentration at 1.5 h: 1.5 hours after start of infusion; for concentration at 2 h: 2 hours after start of infusion; for concentration at 4 h: 4 hours after start of infusion; for concentration at 8 h: 8 hours after start of infusion; for concentration at 24 h: 24 hours after start of infusion; for Difference in blood plasma levels between the two salt forms (2 sample t-test, pooled error): 10 mg/kg IV infusion for 1 hour, mesylate formulated in Captisol, (S)-lactate in trehalose
Description: Evaluate the noncompartmental pharmacokinetic parameters of the methanesulfonic acid monohydrate and (S)-lactate monohydrate salts of 5-(5-(2-(3-aminopropoxy)-6-methoxyphenyl)-1H-pyrazol-3-ylamino)pyrazine-2-carbonitrile after intravenous (IV) infusion of 10 mg/kg of the methanesulfonic acid monohydrate salt (10 mg/kg, formulated in Captisol®) or of the (S)-lactate monohydrate salt (formulated in trehalose) into the femoral vein cannula of fed male Sprague-Dawley rats for 1 hour. Collect blood samples over 24 hours from 6 animals/group. Collect blood samples into tubes containing K3EDTA at 0.25, 0.5, 1, 1.25, 1.5, 2, 4, 8, and 24 hours after the start of infusion. Centrifuge the samples to obtain plasma, and freeze until analyzed. Determine plasma concentrations using a validated LC-MS/MS assay.
Dispense WFI equivalent to approximately 80% of the final batch volume. Warm the WFI to 40° C.±3° C. and transfer to the manufacturing vessel. Weigh the required amount of active pharmaceutical ingredient and after ensuring that the WFI temperature is still within the specified range, quantitatively transfer the active pharmaceutical ingredient into the manufacturing vessel while stirring. Stir until the active pharmaceutical ingredient has dissolved yielding a clear yellow solution, stirring for no longer than 30 minutes. Add trehalose and polysorbate 80 to the manufacturing vessel. Stir until dissolved. Measure the pH of the solution and adjust to pH 4.4±0.3 with lactic acid (Note: If using lactic acid 88%-92% solution, titrate slowly and cautiously as small quantities can produce large changes in pH, or prepare a 10% solution of lactic acid for pH adjustment). If necessary, and only if the pH drops below the lower limit during adjustment, add 10% NaOH solution to bring the pH back into range. Add WFI to the manufacturing vessel to bring the solution to the final batch weight which is calculated based on the desired batch volume and the density of the solution. Measure the pH of the solution and adjust, if necessary, to pH 4.4±0.3 with lactic acid or 10% NaOH. The solution is filtered through a sterile 0.22 micron PVDF membrane (Millipore Durapore®) into a sterile receiving vessel. Fill the drug product into sterile vials. Upon completion of filling, stopper and seal vials. If not dosed within about 4 hours, store all vials at −20° C.
Dispense WFI equivalent to approximately 80% of the final batch volume into the manufacturing vessel. Weigh the required amount of Captisol® and transfer to the manufacturing vessel. Stir until dissolved. Weigh the required amount of active pharmaceutical ingredient and form a slurry by adding WFI to the active pharmaceutical ingredient with swirling until wetted. Transfer the slurry to the stirring Captisol® solution. Rinse the active pharmaceutical ingredient with WFI (3×) and add the rinses to the stirring bulk solution. Stir until the active pharmaceutical ingredient has been dispersed. Stir for no longer than 60 minutes. Some particles may be visible in the manufacturing vessel after stirring for 60 minutes. Maintain the pH of the solution between 4.0-6.0. If the pH drops below the lower limit, 10% NaOH solution may be added to bring the pH into range. Add WFI to the manufacturing vessel to bring the solution to the final batch weight which is calculated based on the desired batch volume and the density of the solution. Measure the pH of the solution and adjust, if necessary, to pH 4.0-6.0 with 10% NaOH. Filter the solution through a sterile 0.22 micron PVDF membrane (Millipore Durapore®) into a sterile receiving vessel. Fill the drug product into sterile vials. Upon completion of filling, stopper and seal the vials. If not dosed within about 4 hours, store all vials at −20° C.

[4] = aqueous buffer, water solubility comparison, slurry in approx. 0.1 M aqueous acid

Compound: COc1cccc(OCCCN)c1-c1cc(Nc2cnc(C#N)cn2)n[nH]1.C[C@H](O)C(=O)O [(S)-Lactate Monohydrate, 5-(5-(2-(3-Aminopropoxy)-6-methoxyphenyl)-1H-pyrazol-3-ylamino)pyrazine-2-carbonitrile (S)-lactate Monohydrate]
- Stability [1]: Satisfactory
- solubility at 1 week ([2]; aqueous (S)-lactic acid solution, pH 2.46, aqueous buffer, in water, measured at a pH of 2.46, 0.104 M (S)-lactic acid): > 20000 µg/mL
- solubility at 1 week ([2]; aqueous solution of the selected acid, aqueous buffer, water solubility comparison, slurry in approx. 0.1 M aqueous acid): > 20000 µg/mL
- concentration at 0.25 h ([3]; plasma): 1110 ng/mL
- concentration at 0.5 h ([3]; plasma): 1180 ng/mL
- concentration at 1 h ([3]; plasma): 1140 ng/mL
- concentration at 1.25 h ([3]; plasma): 405 ng/mL
- concentration at 1.5 h ([3]; plasma): 283 ng/mL
- concentration at 2 h ([3]; plasma): 217 ng/mL
- concentration at 4 h ([3]; plasma): 73.8 ng/mL
- concentration at 8 h ([3]; plasma): 28.6 ng/mL
- concentration at 24 h ([3]; plasma): 2.6 ng/mL
- Difference in blood plasma levels between the two salt forms (2 sample t-test, pooled error) [3]: no significant difference

Compound: COc1cccc(OCCCN)c1-c1cc(Nc2cnc(C#N)cn2)n[nH]1.Cl.Cl [Di-HCl, 5-(5-(2-(3-aminopropoxy)-6-methoxyphenyl)-1H-pyrazol-3-ylamino)pyrazine-2-carbonitrile di-HCl salt]
- Stability [1]: Unstable
- solubility at 1 week [2, 4]: 107 µg/mL

Compound: COc1cccc(OCCCN)c1-c1cc(Nc2cnc(C#N)cn2)n[nH]1.CS(=O)(=O)O.O [Methanesulfonic acid Monohydrate, 5-(5-(2-(3-aminopropoxy)-6-methoxyphenyl)-1H-pyrazol-3-ylamino)pyrazine-2-carbonitrile methanesulfonic acid monohydrate salt]
- Stability [1]: Satisfactory
- solubility at 1 week [2, 4]: 6630 µg/mL
- concentration at 0.25 h ([3]; in vivo): 1060 ng/mL
- concentration at 0.5 h ([3]; in vivo): 1100 ng/mL
- concentration at 1 h ([3]; in vivo): 930 ng/mL
- concentration at 1.25 h ([3]; in vivo): 319 ng/mL
- concentration at 1.5 h ([3]; in vivo): 249 ng/mL
- concentration at 2 h ([3]; in vivo): 178 ng/mL
- concentration at 4 h ([3]; in vivo): 67.5 ng/mL
- concentration at 8 h ([3]; in vivo): 30.3 ng/mL
- concentration at 24 h ([3]; in vivo): 3 ng/mL
- Difference in blood plasma levels between the two salt forms (2 sample t-test, pooled error) [3]: no significant difference

Reference: US10189818B2, “5-(5-(2-(3-aminopropdoxy)-6-methoxyphenyl)-1H-pyrazol-3-ylamino)pyrazine-2-carbonitfile (S)-lactate monohydrate” (priority 2015, dated 2019)
